Measurements taken from patent US20070117770A1, “Human ribosomal DNA (rDNA) and ribosomal RNA (rRNA) nucleic acids and uses thereof” (Cylene Pharmaceuticals, Inc., priority 2005, published 2007).

Columns and labels:
CDK3/cyclinE(h) = CDK3/cyclinE(h) (Homo sapiens, UniProt Q00526); test: Protein kinase inhibition assay; assay type: biochemical; settings: read-out: percent residual activity of CDK3/cyclinE(h)
Description: (§1) Certain compounds were tested for activity in protein kinase inhibition assays. All substrates were dissolved and diluted to working stocks in de-ionized water, apart from histone H1 (10× working stock in 20 mM MOPS pH 7.0), PDKtide (10× working stock in 50 mM Tris pH 7.0) ATF2 (which is typically stored at a 20× working stock in 50 mM Tris pH 7.5, 150 mM NaCl, 0.1 mM EGTA, 0.03% Brij-35, 50% glycerol, 1 mM benzamidine, 0.2 mM PMSF and 0.1% R-mercaptoethanol), KKLNRTLSFAEPG (SEQ ID NO:203) and RRRLSFAEPG (SEQ ID NO:204) (50 mM HEPES pH 7.4) and GGEEEEYFELVKKKK (SEQ ID NO:205) (20 mM MOPS pH 7.0). All kinases were pre-diluted to a 10× working concentration prior to addition into the assay. The composition of the dilution buffer for each kinase is detailed below.
(§2) In a final reaction volume of 25 μl, CDK3/cyclinE (h) (5-10 mU) is incubated with 8 mM MOPS pH 7.0, 0.2 mM EDTA, 0.1 mg/ml histone H1, 10 mM MgAcetate and [gamma-33P-ATP] (specific activity approx. 500 cpm/pmol, concentration as required). The reaction is initiated by the addition of the MgATP mix. After incubation for 40 minutes at room temperature, the reaction is stopped by the addition of 5 μl of a 3% phosphoric acid solution. 10 μl of the reaction is then spotted onto a P30 filtermat and washed three times for 5 minutes in 75 mM phosphoric acid and once in methanol prior to drying and scintillation counting.

nucleolin/cMyc QP DNA = target: T1, nucleolin/cMyc QP DNA (Homo sapiens, UniProt P19338); test: EMSA, nucleolin/QP ligand interaction; assay type: binding; settings: nucleolin ~250 nM, 32P-labeled ligand 10 or 250 nM, 30 minutes (FIG. 1, FIG. 2)
T1 construct: without the N-terminal acidic stretches domain
T1 sequence (P19338 284-710 limits assumed): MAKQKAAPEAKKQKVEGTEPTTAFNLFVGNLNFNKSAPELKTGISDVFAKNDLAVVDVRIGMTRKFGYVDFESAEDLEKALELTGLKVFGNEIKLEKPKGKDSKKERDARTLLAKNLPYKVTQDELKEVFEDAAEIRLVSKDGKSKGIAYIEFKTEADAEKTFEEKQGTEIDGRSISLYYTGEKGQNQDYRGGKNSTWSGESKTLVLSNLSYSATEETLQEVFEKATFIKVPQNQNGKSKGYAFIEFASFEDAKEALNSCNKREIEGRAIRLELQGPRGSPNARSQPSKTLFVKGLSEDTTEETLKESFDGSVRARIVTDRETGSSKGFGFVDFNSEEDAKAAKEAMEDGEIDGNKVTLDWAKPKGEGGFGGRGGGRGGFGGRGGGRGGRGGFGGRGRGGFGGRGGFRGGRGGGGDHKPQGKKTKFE
Description: The following assays assessed effects of compounds on interactions between nucleolin and nucleic acid ligands capable of forming quadruplex (QP) and hairpin (HP) secondary structures. Nucleic acid ligands tested were a cMyc QP DNA having nucleotide sequence 5′-[…]-3′ (SEQ ID NO: 176) and a HP pre-rRNA region to which nucleolin binds, having the sequence 5′-[…]-3′ (SEQ ID NO: 177). In the assays, recombinant nucleolin (˜250 nM), which was fused to maltose binding protein and had the sequence under accession number NM_005381 without the N-terminal acidic stretches domain, was incubated with each of the two ^32P-labeled nucleic acid ligands (10 or 250 nM). Nucleolin and the nucleic acid ligand were incubated in the presence or absence of a test compound of Formula A-1, B-1, C-6 or C-7 in an incubation buffer (12.5 mM Tris, pH 7.6, 60 mM KCl, 1 mM MgCl2, 0.1 mM EDTA, 1 mM DTT, 5% glycerol, 0.1 mg/ml BSA) for 30 minutes at room temperature. Structures for A-1 and B-1 are shown above and structures for C-6 and C-7 are shown hereafter: [drawing 17] The resulting complexes were separated on a 6% DNA retardation gel using 0.5× TBE with 20 mM KCl as a running buffer (i.e., electrophoresis mobility shift assay (EMSA)).

MAPKAP-K3(h) = MAPKAP-K3(h) (Homo sapiens, UniProt Q16644); test: Protein kinase inhibition assay; assay type: biochemical; settings: read-out: percent residual activity of MAPKAP-K3(h)
MAPKAP-K3(h), sequence (Q16644 whole entry): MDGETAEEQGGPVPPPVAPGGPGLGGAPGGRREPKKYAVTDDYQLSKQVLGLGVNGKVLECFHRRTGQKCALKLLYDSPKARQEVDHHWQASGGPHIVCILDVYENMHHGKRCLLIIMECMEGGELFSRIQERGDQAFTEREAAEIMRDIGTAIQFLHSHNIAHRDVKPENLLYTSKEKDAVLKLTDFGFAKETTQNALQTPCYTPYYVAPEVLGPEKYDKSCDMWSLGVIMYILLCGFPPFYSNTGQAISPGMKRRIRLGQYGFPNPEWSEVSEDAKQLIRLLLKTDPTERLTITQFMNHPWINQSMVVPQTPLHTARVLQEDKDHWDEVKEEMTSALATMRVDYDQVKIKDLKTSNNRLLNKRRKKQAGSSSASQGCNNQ
Description: as §1
In a final reaction volume of 25 μl, MAPKAP-K3 (h) (5-10 mU) is incubated with 50 mM Na R-glycerophosphate pH 7.5, 0.1 mM EGTA, 30 μM KKLNRTLSVA (SEQ ID NO:212), 10 mM MgAcetate and [gamma-33P-ATP] (specific activity approx. 500 cpm/pmol, concentration as required). The reaction is initiated by the addition of the MgATP mix. After incubation for 40 minutes at room temperature, the reaction is stopped by the addition of 5 μl of a 3% phosphoric acid solution. […]

AMPK(r) = test: Protein kinase inhibition assay; assay type: biochemical, rat; settings: 2.5 μM
Description: as §1
In a final reaction volume of 25 μl, AMPK (r) (5-10 mU) is incubated with 32 mM HEPES pH 7.4, 0.65 mM DTT, 0.012% Brij-35, 200 μM AMP, 200 μM AMARAASAAALARRR (SEQ ID NO:208), 10 mM MgAcetate and [gamma-33P-ATP] (specific activity approx. 500 cpm/pmol, concentration as required). The reaction is initiated by the addition of the MgATP mix. After incubation for 40 minutes at room temperature, the reaction is stopped by the addition of 5 μl of a 3% phosphoric acid solution. […]

Plk3(h) = Plk3(h) (Homo sapiens, UniProt Q9H4B4); test: Protein kinase inhibition assay; assay type: biochemical; settings: read-out: percent residual activity of Plk3(h)
Plk3(h), sequence (Q9H4B4 whole entry): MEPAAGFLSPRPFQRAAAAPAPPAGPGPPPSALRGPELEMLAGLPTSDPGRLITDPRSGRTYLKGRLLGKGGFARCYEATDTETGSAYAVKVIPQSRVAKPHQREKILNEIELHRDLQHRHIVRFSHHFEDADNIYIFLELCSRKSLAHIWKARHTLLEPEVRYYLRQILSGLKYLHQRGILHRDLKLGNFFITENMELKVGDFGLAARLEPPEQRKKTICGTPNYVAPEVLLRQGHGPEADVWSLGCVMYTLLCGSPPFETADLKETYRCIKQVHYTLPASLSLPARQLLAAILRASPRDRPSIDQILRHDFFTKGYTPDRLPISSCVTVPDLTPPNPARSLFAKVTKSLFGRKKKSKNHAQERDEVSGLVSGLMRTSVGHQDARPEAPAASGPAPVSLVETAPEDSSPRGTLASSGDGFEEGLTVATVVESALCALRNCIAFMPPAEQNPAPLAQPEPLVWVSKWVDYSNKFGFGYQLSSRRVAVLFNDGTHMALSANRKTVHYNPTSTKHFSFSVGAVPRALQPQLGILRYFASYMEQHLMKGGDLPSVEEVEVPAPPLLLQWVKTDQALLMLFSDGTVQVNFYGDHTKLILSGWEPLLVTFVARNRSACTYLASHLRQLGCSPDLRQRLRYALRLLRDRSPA
Description: as §1
as §2, with “Plk3” for “CDK3/cyclinE”, “2” for “0.1”, “casein,” for “histone H1,”

MuSK(h) = MuSK(h) (Homo sapiens, UniProt O15146); test: Protein kinase inhibition assay; assay type: biochemical; settings: read-out: percent residual activity of MuSK(h)
MuSK(h), sequence (O15146 24-869): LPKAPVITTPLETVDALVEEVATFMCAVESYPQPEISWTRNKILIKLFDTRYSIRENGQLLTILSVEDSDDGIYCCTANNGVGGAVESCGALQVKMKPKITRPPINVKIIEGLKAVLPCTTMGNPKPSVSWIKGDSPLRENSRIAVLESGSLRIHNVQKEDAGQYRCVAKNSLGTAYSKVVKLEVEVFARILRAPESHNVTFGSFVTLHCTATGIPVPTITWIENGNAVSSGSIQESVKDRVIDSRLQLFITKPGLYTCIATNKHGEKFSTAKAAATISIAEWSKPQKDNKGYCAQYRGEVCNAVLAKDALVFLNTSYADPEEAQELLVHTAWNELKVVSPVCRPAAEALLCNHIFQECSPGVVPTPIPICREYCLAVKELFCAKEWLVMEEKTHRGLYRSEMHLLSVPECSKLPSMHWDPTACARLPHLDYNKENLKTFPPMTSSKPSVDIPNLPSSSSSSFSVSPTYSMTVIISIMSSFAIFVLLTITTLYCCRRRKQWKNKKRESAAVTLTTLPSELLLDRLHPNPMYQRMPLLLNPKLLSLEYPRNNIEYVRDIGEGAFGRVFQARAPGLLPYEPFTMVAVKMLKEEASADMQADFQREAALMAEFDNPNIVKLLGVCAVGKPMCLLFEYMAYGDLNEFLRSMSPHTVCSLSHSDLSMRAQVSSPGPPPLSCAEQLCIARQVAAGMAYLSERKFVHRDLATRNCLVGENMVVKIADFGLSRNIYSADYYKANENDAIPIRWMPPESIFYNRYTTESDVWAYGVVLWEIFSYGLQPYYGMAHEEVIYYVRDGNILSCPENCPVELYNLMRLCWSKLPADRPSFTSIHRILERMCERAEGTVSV
Description: as §1
as §2, with “MuSK” for “CDK3/cyclinE”, “5 mM MnCl2, 0.33” for “0.1”, “myelin basic protein,” for “histone H1,”

CDK3/cyclinE(h), sequence (Q00526 whole entry): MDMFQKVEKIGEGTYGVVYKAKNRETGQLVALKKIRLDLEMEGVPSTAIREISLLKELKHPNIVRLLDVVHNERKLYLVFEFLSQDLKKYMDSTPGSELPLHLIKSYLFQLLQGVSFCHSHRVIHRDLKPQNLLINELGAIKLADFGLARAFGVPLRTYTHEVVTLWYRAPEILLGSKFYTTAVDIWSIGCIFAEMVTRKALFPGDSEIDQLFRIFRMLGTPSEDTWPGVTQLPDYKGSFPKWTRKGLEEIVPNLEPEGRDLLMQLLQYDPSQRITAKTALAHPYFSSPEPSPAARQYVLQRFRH
CDK3/cyclinE(h), sequence (P24864 whole entry partner): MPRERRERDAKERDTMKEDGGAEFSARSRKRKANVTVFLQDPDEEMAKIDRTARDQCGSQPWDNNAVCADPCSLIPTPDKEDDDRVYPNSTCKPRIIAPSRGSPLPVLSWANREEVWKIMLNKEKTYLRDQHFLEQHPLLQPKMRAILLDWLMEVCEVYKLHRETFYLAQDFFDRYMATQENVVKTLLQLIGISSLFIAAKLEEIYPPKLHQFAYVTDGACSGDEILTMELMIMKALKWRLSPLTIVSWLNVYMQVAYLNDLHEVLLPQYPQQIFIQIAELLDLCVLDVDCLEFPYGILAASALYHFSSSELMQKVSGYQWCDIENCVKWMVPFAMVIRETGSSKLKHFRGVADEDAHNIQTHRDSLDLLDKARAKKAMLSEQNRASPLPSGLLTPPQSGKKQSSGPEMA

Row | SMILES | remaining activity at 2.5 µM (CDK3/cyclinE(h)) [%] | interference with the nucleolin/QP ligand interaction (nucleolin/cMyc QP DNA) | remaining activity at 2.5 µM (MAPKAP-K3(h)) [%] | percent residual activity of AMPK(r) (AMPK(r)) [%] | remaining activity at 2.5 µM (Plk3(h)) [%] | remaining activity at 2.5 µM (MuSK(h)) [%]
1 | CN1CCCC1CCNC(=O)c1cn2c3c(c(N4CCC(c5cnccn5)C4)c(F)cc3c1=O)Oc1cc3ccccc3cc1-2 (stereo not drawn) [Compound A-1] | 93 | interfered with the nucleolin/QP ligand interaction in a concentration dependent manner | 94 | 82 | 92 | 110
2 | CC(=O)N1CCN(c2ccc3c(=O)c(C(=O)NCCN4CCCC4)c4n(C)c5ccccc5n4c3n2)CC1 [Compound B-1] | 103 | interfered with the nucleolin/QP ligand interaction in a concentration dependent manner | 109 | 95 | 86 | 108
